{"source": "patent EP0636633A1", "about": "“A triterpenoid saponin, extraction thereof and use to treat or prevent diabetes mellitus” (KOWA CHEMICAL INDUSTRIES CO., LTD., priority 1993, dated 1995)", "key": {"[1]": {"system": "DDF male mice", "assay": "Acute toxicity test, forced oral administration", "conditions": "for Number of dead animals: mouse, in vivo, po", "method": "An acute toxicity test was effected by the following procedure.\nUse was made of DDF male mice having a weight of 25 g, and each group consisted of 10 animals. The animals were ingested a solid feed (for breeding) while they freely got tap water as drinking water.\nThe triterpenoid saponin was suspended in 1% CMC physiological saline to a concentration of 200 mg/ml.\nThe test substance was administered with a probe by forced oral administration. The dose was 5000 mg/kg for one group and 2500 mg/kg for another group. Test period was 7 days. After the administration, the animals were continuously observed for 3 hr, and, thereafter, observation was effected of general symptoms every 6 hr."}, "[2]": {"system": "sweet taste responses", "assay": "sweet taste response inhibition test", "type": "in vivo", "conditions": "for taste of Aqueous Sucrose Solution, panelists ①②③④⑤: after 0.08% sample solution kept in mouth 2 min", "method": "A sweet taste response inhibition test was effected for the triterpenoid saponin of the present invention and Gymnemic acid 1 and Gymnemic acid 2 obtained from Gymnema sylvestre, R. Br. known to have an inhibitory effect on glucose adsorption.\nThe triterpenoid saponin prepared in Example 1 and Gymnemic acid 1 and Gymnemic acid 2 were dissolved in a 0.01 M/liter aqueous sodium bicarbonate (NaHCO₃) solution to prepare a 0.08% triterpenoid saponin solution, a 0.08% Gymnemic acid 1 solution and a 0.08 % Gymnemic acid 2 solution.\nSeparately, 0.1 M/liter, 0.2 M/liter, 0.3 M/liter, 0.4 M/liter and 0.5 M/liter aqueous sucrose solutions were previously prepared. The sweet taste response inhibition test was effected according to the following procedure.\n• 1) 5 ml of the triterpenoid saponin solution or Gymnemic acid 1 or 2 solution was kept in mouth so that it was spread in the whole mouth. • 2) 2 min after that, the sample solution was spit out, and the mouth was sufficiently rinsed with distilled water. • 3) The above-described aqueous sucrose solutions were successively kept in the mouth in the order of concentration from the lowest to the highest, and the sucrose concentration of the solution which was first sweet to the taste was recorded."}}, "data": [{"smiles": "CC1(C)CC[C@]2(CO)[C@@H](O)C[C@]3(C)C(=CC[C@@H]4[C@@]5(C)CC[C@H](O[C@@H]6O[C@H](C(=O)O)[C@@H](O)[C@H](O)[C@H]6O[C@@H]6O[C@H](CO)[C@@H](O)[C@H](O)[C@H]6O)C(C)(C)[C@@H]5CC[C@]43C)[C@@H]2C1", "note": "[triterpenoid saponin, (3β,16β)-16,28-dihydroxyolean-12-en-3-yl-2-O-β-D-glucopyranosyl-β-D-glucopyranosiduronic acid]", "values": [{"measurement": "Other general symptoms", "setting": "[1]; Dose 2500 mg/kg, oral, 7 days", "value": "Do."}, {"measurement": "Other general symptoms", "setting": "[1]; Dose 5000 mg/kg, oral, 7 days", "value": "None of the animals exhibited any abnormal symptom."}, {"measurement": "toxicity", "setting": "[1]; acute toxicity test, oral, mice, 7 days", "value": "no toxicity was observed"}, {"measurement": "Number of dead animals", "setting": "[1]; 2500 mg/kg", "value": 0}, {"measurement": "Number of dead animals", "setting": "[1]; 5000 mg/kg", "value": 0}, {"measurement": "inhibitory effect on the sweet taste responses", "setting": "[2]; 0.08% sample solution", "value": "no inhibitory effect on the sweet taste responses"}, {"measurement": "taste of Aqueous Sucrose Solution, panelists ①②③④⑤", "setting": "[2]; sucrose 0.1 M/liter", "value": "Δ○○Δ○"}, {"measurement": "taste of Aqueous Sucrose Solution, panelists ①②③④⑤", "setting": "[2]; sucrose 0.2 M/liter", "value": "○○○○○"}]}]}
